Data set [1] deals with amber codon (UAG) in GFP templates. As to the kind of experiment: Amber codon suppression in E. coli cell-free translation system (GFP fluorescence). It is filed as biochemical. The text has this:
FIG. 22. Comparative analysis of amber codon suppression efficiencies in E. coli cell-free translation system with different nnAA/o-tRNA/aaRS combinations. A: The structure of nnAAs used here. B-D: Suppression Amber suppression of A_151X template. The suppression efficiency is defined as a ratio compared to the fluorescence of percentage of wild type eGFP fluorescence wild type eGFP without stop codon inside its ORF. B: Incorporation of four nnAAs by three PylRS variants. The final concentrations of PylTcua, PylRS variants and nnAAs were 20 μM, 20 μM and 1 mM, respectively. C: AzF incorporation by four MjY tRNA variants. MjY1, MjY2, MjY3 and MjY4 are corresponding to the tRNAs pAzPhe1, pAzPhe2, pAzPhe3 and tRNAopt CUA in original publication^35,37. The final concentrations of MjYtRNA variants, AzFRS and AzF are 10 μM, 10 μM and 1 mM, respectively. D: Effect of o-tRNA and o-aaRS concentrations on amber codon suppression efficiency of MjY2/AzFRS/AzF and PylT/PylRSAF/PrK. E: The effect of codon contexts on nnAA incorporation efficiency in two orthogonal systems. The concentration of MjY2 and AzFRS were 10 μM for both while PylT and PylRS were used at 20 and 30 μM, respectively. Four templates, named A_1X, A_151X, B_1X and B_151X, were used in the analysis (sequences are shown in SI). A and B denote the template backbones with different codon biases where codon vocabulary in A is optimized for eGFP while in B it is simplified mostly utilizing the unique codon to decode each amino acid type. The numeric indicates the position of amber codon in ORF sequence. The relative activity in individual reactions is given as a percent of fluorescent intensity provided while obtained when using EctRNATyr(cua) as a suppressor.
(§1) The tRNA-depleted lysate is prepared as described by ethanolamine-sepharose affinity chromatography^24. DNA templates with two GFP ORFs: one of optimized codon composition for eGFP (Template A) and the other of simplified codon composition for sGFP (Template B), were used. Mutations to amber or AGG-codon were introduced either by synthesizing the whole gene fragments as gBlocks by IDT to change all the 6 Arg codons to AGG simultaneously or using PCR with the proper primers to introduce mutations with less than 3 nucleotides at the same position. The obtained fragments were cloned into the pLTE or pOPINE-based plasmids following the standard Gibson assembly cloning procedure (NEB). The correct plasmids with desired mutations were purified by Midiprep Kit (Qiagen) to ensure good quality for cell free protein translation. The sequence information of all the open reading frames used here is provided in SI.
The cell-free translation reactions for GFP production were performed following the standard protocol^60 with the optimized Mg^2+ at 10 mM concentration. 0.35 volume of depleted lysate, same as that for the standard S30 lysate, was used in the reaction. […] GFP production was monitored on a fluorescence plate reader (Synergy) at 30° C. for 3-5 h at 485 nm excitation and 528 nm emission wavelengths.
We tested the recombinant forms of PylRS variants for their ability to support in vitro synthesis of eGFP synthesis from the template containing amber-codon at 151 position (A_151X, SI) in the presence of an evolved o-tRNA harboring U25C mutation in its anticodon stem (PylT)^14 and nnAA-substrates BCN, TCO or TCO*. Another nnAA PrK (FIG. 22A) for also used for azide-coupling known to be accommodated and charged to tRNA by wt MbPylRS30 and […], MmPylRS5, was also tested. […] Neither of these large aliphatic alkynes or alkenes could be incorporated by either of three PylRS mutants with efficiency above 5%. […] The latter confirms the promiscuity of engineered PylRS variant to various substrates reported in a comprehensive study^35

The test system of the next data set is AGG codon in GFP ORFs. As to the kind of experiment: AGG reassignment to AzF in cell-free system depleted of tRNA species decoding AGG. It is filed as biochemical, E. coli. As to conditions: all four templates. On the procedure: FIG. 23. AGG reassignment to AzF in the context of four GFP ORFs. The GFP protein was expressed in cell-free system depleted of tRNA species decoding AGG codon with and without addition of MjY suppression system (MjY2/AzFRS). The final concentrations for MjY2, AzFRS, AzF are were 10 μM, 10 μM and 1 mM, respectively. The anticodon in MjY2 was changed to CCU in order to reassign AGG codon to AzF.
as §1, with “The obtained fragments were cloned into the pLTE or pOPINE-based plasmids following the standard Gibson assembly cloning procedure (NEB). The correct plasmids with desired mutations were purified by Midiprep Kit (Qiagen) to ensure good quality for cell free protein translation.” left out
The cell-free translation reactions for GFP production were performed following the standard protocol^60 with the optimized Mg^2+ at 10 mM concentration. […] GFP production was monitored on a fluorescence plate reader (Synergy) at 30° C. for 3-5 h at 485 nm excitation and 528 nm emission wavelengths. […]

For data set [2], the system named is amber codon in A_151X template. Briefly: Amber suppression by flexizyme-precharged nnAA-tRNA, A_151X template. It is filed as biochemical, E. coli. Conditions: five nnAAs; precharged tRNA 10, 20 or 30 uM. An excerpt: FIG. 29. The incorporation efficiency of 5 nnAAs precharged by flexizyme with their respective active group. A: The structure of five activated acid substrates for tRNA acylation by Flexizyme, including L-Propargylglycine 4-chlorobenzyl thioester (Pra-CBT), L-Azidolysine 4-chlorobenzyl thioester (Lys(N3)-CBT), L-Azidohomoalanine 4-chlorobenzyl thioester (Aha-CBT), NE-biotinyl-L-lysine 3,5-dinitrobenzyl ester (Lys(biotin)-DBN) and L-Azidophenylalanine-cyanomethyl ester (AzF-CME). The nnAAs are shown in black while their respective active groups in red. B: The amber suppression efficiency of 5 nnAAs precharged tRNA tested by using A_151X template in the cell free translation system. The precharged tRNA was used to prime the translational reactions at 10, 20 or 30 uM of final tRNA concentration. The flexizyme reaction time and the final concentration of precharged nnAA-tRNAs were indicated.
C-terminal Cys were added into sequence of the affinity clamp protein (pdz-fibronectin Fusion Protein, PDB: 3CH8_A). The purified protein with C-terminal Cys was immobilized on Iodoacetyl Gel (UltraLink®) using manufacture's protocol. tRNA charging by flexizyme for amber suppression: The acylation reaction were performed as described before^62. 1 volume of 250 μM o-tRNA was mixed with the same volume of 50 μM Fx ([…]) and 3 volume of water. […]

The subject of another data set is GCU Ser isoacceptor. As to the kind of experiment: Kissing loop binding to tRNA isoacceptor. As to conditions: read-out: affinity. Set-up: species or system E. coli. On the procedure: Kissing loop (KL) binds GCU Ser isoacceptor with high affinity (5-50 nM) through the formation of quasi-continuous double helix stabilized by the common stacking column between the planes of the nucleotide pairs (FIG. 16A). E. coli S30 lysate can be to a large extent depleted of total tRNA by the chromatography on ethanolamine sepharose. After the depletion lysate retains ˜60% of translational efficiency of its parental one if supplemented by commercially available total tRNA fraction (FIG. 16 B).

[3] abbreviates: A_151X template, % of wild type eGFP fluorescence, PylTcua 20 μM, PylRS variant 20 μM, nnAA 1 mM.

Entries after “also recorded” stand apart in the source; their conditions may differ.

Take `[N-]=[N+]=Nc1ccc(C[C@H](N)C(=O)O)cc1` [AzF, p-azidophenylalanine]: in data set [1] (GFP151AzF sample, TAG codon), the “protein containing AzF (LC-MS/MS)” value was “more than 80%”. The “GFP protein modified with AzF” value in the data set with AGG codon in GFP ORFs is given as “more than 80%”. Moreover, the “amber suppression efficiency among flexizyme-charged nnAAs” value in data set [2] is reported as “best amber-codon incorporation efficiency; also recorded: highest translational activity”.
In the case of `C#CCN[C@@H](CCCCN)C(=O)O` [PrK, N-Propargyl-Lysine], the “incorporation with TCORS” value in data set [1] (A_151X template) is recorded as “essentially failed to incorporate”. Moreover, in data set [1] (setting [3]), the “UAG suppression efficiency with BCNRS” value is on record as “essentially failed to incorporate” and the “UAG suppression efficiency with PylRSAF” value was determined as 13%.
On to Bicyclo [6.1.0] nonyne-Lysine [BCN], for which, in data set [1] (setting [3]), the “UAG suppression efficiency with BCNRS” value turned out to be 3%. For the same molecule, the “efficiency of UAG suppression by either of three PylRS mutants” value in data set [1] (A_151X template, BCNRS, TCORS, PylRSAF) is listed as “very low”.

B1: MjY4: MjY tRNA with six mutations described in a later report (nucleic acid)
DNA: CCGGCGGTAGTTCAGCAGGGCAGAACGGCGGACTCTAAATCCGCATGGCAGGGGTTCAAATCCCCTCCGCCGGACCA
modifications: RNA, all phosphodiester, T or U not given here
notes: MjY tRNA with six mutations described in a later report
For B1, the “efficiency of MjY2 relative to the listed tRNA in AzF incorporation” value in data set [1] (A_151X, 10 μM tRNA, 10 μM AzFRS, 1 mM AzF) is “slightly better”.

B2: KL: RNA aptamer binding the anticodon loop of tRNA(Ser)GCU; SEQ ID NO:7 (nucleic acid)
chain: GGTAGTGAGGTAGTTAGCAGATACCTCACTACCAACACACACACAACACACACACAACACACAAGCT
modifications: “kissing loop” coding sequence with linker
Consider B2, for which the Kd in the data set on GCU Ser isoacceptor was 5 to 50 nM.

Values taken from US20180171321A1, “PLATFORM FOR A NON-NATURAL AMINO ACID INCORPORATION INTO PROTEINS” (THE UNIVERSITY OF QUEENSLAND, priority 2015, published 2018).
